# Source: PubChem BioAssay (NCI)
#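 Cultured in 96-well plates, cells were exposed to test compound for 48 hours across five concentrations. Abbreviation: GI50, concentration required for 50% inhibition of growth. TGI: concentration producing complete growth inhibition.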
# Tests used:
# Assay in all cases: NCI tumour cell line growth inhibition, 48 h
# [1] = test system: BT-549 breast
# [2] = test system: SNB-75 CNS
# [3] = test system: CCRF-CEM leukemia
# [4] = test system: HS 578T breast
# [5] = test system: HCT-15 colon
# [6] = test system: TK-10 renal
# [7] = test system: NCI-H23 lung
# [8] = test system: SW-620 colon
# [9] = test system: SK-MEL-2 melanoma
# [10] = test system: RXF 393 renal
# [11] = test system: 786-0 renal
# [12] = test system: CAKI-1 renal
# [13] = test system: NCI-H460 lung
# [14] = test system: MDA-MB-468 breast
# [15] = test system: ACHN renal
# [16] = test system: SF-295 CNS
# [17] = test system: SK-OV-3 ovarian
# [18] = test system: EKVX NSCLC
# [19] = test system: A549 NSCLC
# [20] = test system: HCC-2998 colon
# [21] = test system: SF-539 CNS
# [22] = test system: OVCAR-5 ovarian
# [23] = test system: HCT-116 colon
# [24] = test system: IGROV1 ovarian
# [25] = test system: RPMI-8226 leukemia
# [26] = test system: NCI-H226 lung
# [27] = test system: DU-145 prostate
# [28] = test system: NCI/ADR-RES ovarian
# [29] = test system: MCF7 breast
# [30] = test system: LOX IMVI melanoma
# [31] = test system: HL-60(TB) leukemia
# [32] = test system: OVCAR-8 ovarian
# [33] = test system: HOP-92 NSCLC
# [34] = test system: T-47D breast
# [35] = test system: KM12 colon
# [36] = test system: UO-31 renal
# [37] = test system: SR leukemia
# [38] = test system: OVCAR-4 ovarian
# [39] = test system: COLO 205 colon
# [40] = test system: OVCAR-3 ovarian
# [41] = test system: HT29 colon
# [42] = test system: A498 renal
# [43] = test system: SNB-19 CNS
# [44] = test system: SF-268 CNS
# [45] = test system: NCI-H522 lung
# [46] = test system: U251 CNS
# [47] = test system: HOP-62 NSCLC
# [48] = test system: SK-MEL-5 melanoma
# [49] = test system: K-562 leukemia
# [50] = test system: UACC-62 melanoma
# [51] = test system: UACC-257 melanoma
# [52] = test system: MDA-MB-231 breast
# [53] = test system: MOLT-4 leukemia
# [54] = test system: M14 melanoma
# [55] = test system: SN12C renal
# [56] = test system: MDA-MB-435
# [57] = test system: MALME-3M melanoma
# [58] = test system: SK-MEL-28 melanoma
# [59] = test system: PC-3 prostate
smiles,measurement,setting,value
CCOC(=O)c1ccc(NC(=S)NC(=O)c2ccc(NC(=O)C(C)C)cc2OC)cc1,GI50,[1],1.97 µM
same,TGI,[1],6.52 µM
same,GI50,[2],3.54 µM
same,TGI,[2],62.7 µM
same,GI50,[3],2.93 µM
same,TGI,[3],50 µM
same,GI50,[4],31.7 µM
same,TGI,[4],> 100 µM
same,GI50,[5],4.24 µM
same,TGI,[5],> 100 µM
same,GI50,[6],22.3 µM
same,TGI,[6],76.6 µM
same,GI50,[7],3.71 µM
same,TGI,[7],29.7 µM
same,GI50,[8],8.22 µM
same,TGI,[8],> 100 µM
same,GI50,[9],14.9 µM
same,TGI,[9],62.9 µM
same,GI50,[10],15.7 µM
same,TGI,[10],82.5 µM
same,GI50,[11],21.9 µM
same,TGI,[11],60.4 µM
same,GI50,[12],17.8 µM
same,TGI,[12],80.8 µM
same,GI50,[13],7.17 µM
same,TGI,[13],> 100 µM
same,GI50,[14],2.04 µM
same,TGI,[14],8.09 µM
same,GI50,[15],26 µM
same,TGI,[15],> 100 µM
same,GI50,[16],8.33 µM
same,TGI,[16],45.4 µM
same,GI50,[17],35.6 µM
same,TGI,[17],> 100 µM
same,GI50,[18],15.7 µM
same,TGI,[18],99.8 µM
same,GI50,[19],33.4 µM
same,TGI,[19],> 100 µM
same,GI50,[20],20.3 µM
same,TGI,[20],> 100 µM
same,GI50,[21],27.7 µM
same,TGI,[21],> 100 µM
same,GI50,[22],29.7 µM
same,TGI,[22],> 100 µM
same,GI50,[23],3.99 µM
same,TGI,[23],51.5 µM
same,GI50,[24],19.3 µM
same,TGI,[24],> 100 µM
same,GI50,[25],2.66 µM
same,TGI,[25],17.5 µM
same,GI50,[26],4.46 µM
same,TGI,[26],36.8 µM
same,GI50,[27],34.7 µM
same,TGI,[27],> 100 µM
same,GI50,[28],12.6 µM
same,TGI,[28],48.3 µM
same,GI50,[29],3.26 µM
same,TGI,[29],37.2 µM
same,GI50,[30],11.6 µM
same,TGI,[30],> 100 µM
same,GI50,[31],2.45 µM
same,TGI,[31],25.2 µM
same,GI50,[32],16.4 µM
same,TGI,[32],> 100 µM
same,GI50,[33],13.8 µM
same,TGI,[33],44.8 µM
same,GI50,[34],2.35 µM
same,TGI,[34],11.2 µM
same,GI50,[35],6.37 µM
same,TGI,[35],> 100 µM
same,GI50,[36],11.3 µM
same,TGI,[36],79.3 µM
same,GI50,[37],6.04 µM
same,TGI,[37],> 100 µM
same,GI50,[38],9.21 µM
same,TGI,[38],71.6 µM
same,GI50,[39],15.5 µM
same,TGI,[39],42.3 µM
same,GI50,[40],15.3 µM
same,TGI,[40],> 100 µM
same,GI50,[41],39.3 µM
same,TGI,[41],> 100 µM
same,GI50,[42],28.1 µM
same,TGI,[42],> 100 µM
same,GI50,[43],14.8 µM
same,TGI,[43],66.9 µM
same,GI50,[44],20.7 µM
same,TGI,[44],> 100 µM
same,GI50,[45],3.79 µM
same,TGI,[45],> 100 µM
same,GI50,[46],12.3 µM
same,TGI,[46],46 µM
same,GI50,[47],22.1 µM
same,TGI,[47],72.3 µM
same,GI50,[48],2.14 µM
same,TGI,[48],5.79 µM
same,GI50,[49],3.28 µM
same,TGI,[49],> 100 µM
same,GI50,[50],11.7 µM
same,TGI,[50],53.7 µM
same,GI50,[51],12.5 µM
same,TGI,[51],> 100 µM
same,GI50,[52],16.2 µM
same,TGI,[52],53.2 µM
same,GI50,[53],2.22 µM
same,TGI,[53],5.97 µM
same,GI50,[54],5.83 µM
same,TGI,[54],63.1 µM
same,GI50,[55],28.5 µM
same,TGI,[55],> 100 µM
same,GI50,[56],15.2 µM
same,TGI,[56],> 100 µM
same,GI50,[57],4.28 µM
same,TGI,[57],32.6 µM
same,GI50,[58],14 µM
same,TGI,[58],> 100 µM
same,GI50,[59],6.41 µM
same,TGI,[59],69.9 µM
COc1ccc(-c2cc(C(=O)N=Nc3c(O)[nH]c4ccc(Br)cc34)c3ccccc3n2)cc1,GI50,[1],27.8 µM
same,TGI,[1],48.5 µM
same,GI50,[2],14.1 µM
same,TGI,[2],37.9 µM
same,GI50,[3],3.09 µM
same,TGI,[3],> 100 µM
same,GI50,[4],14.3 µM
same,TGI,[4],55.1 µM
same,GI50,[5],3.23 µM
same,TGI,[5],11.9 µM
same,GI50,[6],22 µM
same,TGI,[6],41.2 µM
same,GI50,[7],3.09 µM
same,TGI,[7],13.3 µM
same,GI50,[8],2.28 µM
same,TGI,[8],6.83 µM
same,GI50,[9],18.2 µM
same,TGI,[9],33.9 µM
same,GI50,[10],10 µM
same,TGI,[10],22.6 µM
same,GI50,[11],19.4 µM
same,TGI,[11],47.8 µM
same,GI50,[12],13.9 µM
same,TGI,[12],40.1 µM
same,GI50,[13],3.7 µM
same,TGI,[13],16.1 µM
same,GI50,[14],10.4 µM
same,TGI,[14],25.3 µM
same,GI50,[15],11.1 µM
same,TGI,[15],24.1 µM
same,GI50,[16],13.7 µM
same,TGI,[16],27.2 µM
same,GI50,[17],16.1 µM
same,TGI,[17],34.8 µM
same,GI50,[18],10.5 µM
same,TGI,[18],22.4 µM
same,GI50,[19],9.06 µM
same,TGI,[19],51.6 µM
same,GI50,[20],12.9 µM
same,TGI,[20],26.4 µM
same,GI50,[21],15.6 µM
same,TGI,[21],29.7 µM
same,GI50,[22],14.3 µM
same,TGI,[22],27.6 µM
same,GI50,[23],5.55 µM
same,TGI,[23],66.4 µM
same,GI50,[24],11.2 µM
same,TGI,[24],25.9 µM
same,GI50,[25],6.37 µM
same,TGI,[25],> 100 µM
same,GI50,[26],14.2 µM
same,TGI,[26],45.7 µM
same,GI50,[27],10.9 µM
same,TGI,[27],30.1 µM
same,GI50,[28],8.75 µM
same,TGI,[28],33.9 µM
same,GI50,[29],6.26 µM
same,TGI,[29],26.5 µM
same,GI50,[30],3.33 µM
same,TGI,[30],12.3 µM
same,GI50,[31],24.7 µM
same,TGI,[31],> 100 µM
same,GI50,[32],12.3 µM
same,TGI,[32],31.4 µM
same,GI50,[33],13.3 µM
same,TGI,[33],40.1 µM
same,GI50,[34],19.8 µM
same,TGI,[34],65.8 µM
same,GI50,[35],19 µM
same,TGI,[35],85.7 µM
same,GI50,[36],12.5 µM
same,TGI,[36],25 µM
same,GI50,[38],17.1 µM
same,TGI,[38],72.2 µM
same,GI50,[39],16.1 µM
same,TGI,[39],47.5 µM
same,GI50,[40],12.3 µM
same,TGI,[40],36.1 µM
same,GI50,[41],3.62 µM
same,TGI,[41],14.5 µM
same,GI50,[42],20.8 µM
same,TGI,[42],36.8 µM
same,GI50,[43],15.5 µM
same,TGI,[43],28.9 µM
same,GI50,[44],17.9 µM
same,TGI,[44],48.4 µM
same,GI50,[45],16.9 µM
same,TGI,[45],46.3 µM
same,GI50,[46],3.4 µM
same,TGI,[46],> 100 µM
same,GI50,[47],16.5 µM
same,TGI,[47],36.7 µM
same,GI50,[48],15.8 µM
same,TGI,[48],31.8 µM
same,GI50,[49],4.28 µM
same,TGI,[49],> 100 µM
same,GI50,[50],15.6 µM
same,TGI,[50],30.2 µM
same,GI50,[51],16.6 µM
same,TGI,[51],37.7 µM
same,GI50,[52],6.94 µM
same,TGI,[52],22.9 µM
same,GI50,[53],5.08 µM
same,TGI,[53],> 100 µM
same,GI50,[54],8.54 µM
same,TGI,[54],44.4 µM
same,GI50,[55],14.9 µM
same,TGI,[55],30.3 µM
same,GI50,[56],13.3 µM
same,TGI,[56],43.8 µM
same,GI50,[57],15.6 µM
same,TGI,[57],34.9 µM
same,GI50,[58],14.5 µM
same,TGI,[58],28.1 µM
same,GI50,[59],8.46 µM
same,TGI,[59],> 100 µM
